According to the NIST ThermoML archive (doi:10.1016/j.jct.2012.11.011):
± gives the expanded uncertainty stated by the source.

Details: Liquid, Vibrating tube method

| SMILES | mass density (288.15 K, 100 kPa) [kg/m3] | mass density (288.15 K, 5000 kPa) [kg/m3] | mass density (288.15 K, 10000 kPa) [kg/m3] | mass density (288.15 K, 20000 kPa) [kg/m3] | mass density (288.15 K, 30000 kPa) [kg/m3] | mass density (288.15 K, 40000 kPa) [kg/m3] | mass density (298.15 K, 100 kPa) [kg/m3] | mass density (298.15 K, 5000 kPa) [kg/m3] | mass density (298.15 K, 10000 kPa) [kg/m3] | mass density (298.15 K, 20000 kPa) [kg/m3] | mass density (298.15 K, 30000 kPa) [kg/m3] | mass density (298.15 K, 40000 kPa) [kg/m3] | mass density (308.15 K, 100 kPa) [kg/m3] | mass density (308.15 K, 5000 kPa) [kg/m3] | mass density (308.15 K, 10000 kPa) [kg/m3] | mass density (308.15 K, 20000 kPa) [kg/m3] | mass density (308.15 K, 30000 kPa) [kg/m3] | mass density (308.15 K, 40000 kPa) [kg/m3] |
| --- | --- | --- | --- | --- | --- | --- | --- | --- | --- | --- | --- | --- | --- | --- | --- | --- | --- | --- |
| CCCCCCCCCC [decane] | 733.6 ± 0.3 | 737.2 ± 0.3 | 740.7 ± 0.4 | 747.2 ± 0.5 | 753.2 ± 0.5 | 758.9 ± 0.6 | 726 ± 0.3 | 730.2 ± 0.3 | 733.5 ± 0.4 | 740.3 ± 0.5 | 746.5 ± 0.5 | 752.2 ± 0.6 | 718.3 ± 0.3 | 722.4 ± 0.3 | 726.2 ± 0.4 | 733.4 ± 0.5 | 740 ± 0.5 | 745.9 ± 0.6 |
| CCOC(=O)OCC [diethyl carbonate] | 980.3 ± 0.2 | 984.5 ± 0.2 | 988.6 ± 0.2 | 996.3 ± 0.2 | 1003.6 ± 0.2 | 1010.5 ± 0.2 | 968.9 ± 0.3 | 973.8 ± 0.3 | 977.8 ± 0.2 | 986 ± 0.2 | 993.6 ± 0.2 | 1000.8 ± 0.2 | 957.7 ± 0.3 | 962.4 ± 0.3 | 967.1 ± 0.3 | 975.7 ± 0.3 | 983.8 ± 0.2 | 991.3 ± 0.2 |
| COC(=O)OC [dimethyl carbonate] | 1076.5 ± 0.4 | 1080.6 ± 0.4 | 1084.8 ± 0.4 | 1092.8 ± 0.4 | 1100.3 ± 0.5 | 1107.5 ± 0.5 | 1062.9 ± 0.4 | 1068 ± 0.4 | 1072.1 ± 0.4 | 1080.5 ± 0.4 | 1088.5 ± 0.4 | 1095.9 ± 0.5 | 1049.4 ± 0.3 | 1054.6 ± 0.4 | 1059.4 ± 0.4 | 1068.3 ± 0.4 | 1076.7 ± 0.4 | 1084.5 ± 0.5 |
| CCCCCCCC [octane] | 706.6 ± 0.3 | 710.9 ± 0.4 | 714.7 ± 0.4 | 721.7 ± 0.5 | 728.1 ± 0.6 | 734.3 ± 0.7 | 698.6 ± 0.3 | 703.4 ± 0.4 | 707 ± 0.4 | 714.6 ± 0.5 | 721.4 ± 0.6 | 727.7 ± 0.7 | 690.5 ± 0.3 | 695 ± 0.4 | 699.4 ± 0.4 | 707.3 ± 0.5 | 714.5 ± 0.6 | 720.8 ± 0.7 |
